Laboratory results as given in US20220324862A1, “PYRIDOPYRIMIDINONE COMPOUNDS” (Acerand Therapeutics (USA) Limited, priority 2021, published 2022).

Test system: NCI-H1975 cells
Assay: 3D cell proliferation assay
Format: cell-based
Conditions: Homo sapiens, ultra low attachment plate, 96 hours, 3D CTG
Protocol: This assay supports the molecular mode of action of compounds. Low IC50 values are indicative of high potency of the SOS1 inhibition. […] This supports the molecular mode of action of the SOS1 inhibitors as selectively targeting cancer cells dependent on receptor tyrosine kinase-RAS/SOS1-family protein function. Cell proliferation assays were performed in three-dimensional (3D) anchorage-independent conditions in 96 well ultra-low attachment plate with the following human cell lines:
NCI-H1975: human non-small cell lung cancer (NSCLC) with wild type KRAS and EGFR L858R/T790M mutation;
Cell lines were purchased from the American Type Culture Collection (ATCC), NCI, or European Collection of Authenticated Cell Cultures (ECACC). All cell lines were maintained in RPMI-1640 or DMEM with 10% heat inactivated fetal bovine serum.
Cells growing in log phase were detached with Gibco™ TrypLE™ Express Enzyme and plated in 96 well ultra low attachment plate at 15000 to 20000 cells/well in 100 μl of media. After overnight incubation at 37° C. and 5% CO2, the cells were treated with compounds (50 μL/well) at the final concentrations spanning 1 nM to 20 μM. Cells were incubated at 37° C., 5% CO2 and 95% humidity incubator for 96 hours. At the end of incubation, a 3D CTG reagent from Promega was added to each well according to vendors recommendation and mixed for 10 minutes in dark. The luminescence signals were determined using Biotek plate reader. The data was fitted using a sigmoidal curve analysis program (GraphPAD Prism) with variable hill slope.

Structure (SMILES) | IC50
C#C[C@@H](Nc1ncnc2c1cc(C1(O)CCN(C(C)=O)C1)c(=O)n2C)c1cccc(C(F)F)c1F (stereo partly drawn) [Compound 43, 6-(1-acetyl-3-hydroxypyrrolidin-3-yl)-4-{[(1R)-1-[3-(difluoromethyl)-2-fluorophenyl]prop-2-yn-1-yl]amino}-8-methyl-7H,8H-pyrido[2,3-d]pyrimidin-7-one] | 100 to 500 nM
C#C[C@@H](Nc1nc(C)nc2cc(=O)n(C3CCOCC3)cc12)c1cccc(C(F)(F)F)c1C [Compound 4, (R)-2-methyl-4-((1-(2-methyl-3-(trifluoromethyl)phenyl)prop-2-yn-1-yl)amino)-6-(tetrahydro-2H-pyran-4-yl)pyrido[4,3-d]pyrimidin-7(6H)-one] | 100 to 500 nM
C#C[C@@H](Nc1ncnc2c1cc(C1(NC(C)=O)CCN(C(C)=O)CC1)c(=O)n2C)c1cccc(C(F)(F)F)c1C [Compound 57, (R)-N-(1-acetyl-4-(8-methy-4-((1-(2-methyl-3-(trifluoromethyl)phenyl)prop-2-yn-1-yl)amino)-7-oxo-7,8-dihydropyrido[2,3-d]pyrimidin-6-yl)piperidin-4-yl)acetamide] | < 100 nM
C#C[C@@H](Nc1nc(C)nc2c1cc(C1(OC)CCN(C(C)=O)CC1)c(=O)n2C)c1cccc(C(F)(F)F)c1C [Compound 55, 6-(1-acetyl-4-methoxypiperidin-4-yl)-2,8-dimethyl-4-{[(1R)-1-[2-methyl-3-(trifluoromethyl)phenyl]prop-2-yn-1-yl]amino}-7H,8H-pyrido[2,3-d]pyrimidin-7-one] | < 100 nM
C#C[C@@H](Nc1ncnc2c1cc(C1(NC(C)=O)CCOCC1)c(=O)n2C)c1cccc(C(F)(F)F)c1C [Compound 58, (R)-N-(4-(8-methy-4-((1-(2-methyl-3-(trifluoromethyl)phenyl)prop-2-yn-1-yl}amino)-7-oxo-7,8-dihydropyrido[2,3-d]pyrimidin-6-yl)tetrahydro-2H-pyran-4-yl)acetamide] | < 100 nM
C#C[C@@H](Nc1nc(C)nc2cc(=O)n(C3(C(F)F)CC3)cc12)c1cccc(C(F)(F)F)c1C [Compound 9, (R)-6-(1-(difluoromethyl)cyclopropyl)-2-methyl-4-((1-(2-methyl-3-(trifluoromethyl)phenyl)prop-2-yn-1-yl)amino)pyrido[4,3-d]pyrimidin-7(6H)-one] | < 100 nM

The remaining lines, values ahead:

IC50 | Structure (SMILES)
< 100 nM | C#C[C@@H](Nc1ncnc2c1cc(C1(O)CCN(C(C)=O)CC1)c(=O)n2C)c1cccc(C(F)F)c1F [Compound 46, 6-(1-acetyl-4-hydroxypiperidin-4-yl)-4-{[(1R)-1-[3-(difluoromethyl)-2-fluorophenyl]prop-2-yn-1-yl]amino}-8-methyl-7H,8H-pyrido[2,3-d]pyrimidin-7-one]
< 100 nM | C#C[C@@H](Nc1nc(C)nc2c1cc(C1(F)CCN(C(C)=O)CC1)c(=O)n2C)c1cccc(C(F)(F)F)c1C [Compound 56, 6-(1-acetyl-4-fluoropiperidin-4-yl)-2,8-dimethyl-4-{[(1R)-1-[2-methyl-3-(trifluoromethyl)phenyl]prop-2-yn-1-yl]amino}-7H,8H-pyrido[2,3-d]pyrimidin-7-one]
< 100 nM | C#C[C@@H](Nc1ncnc2c1cc(C1(OC)CCN(C(C)=O)CC1)c(=O)n2C)c1cccc(C(F)F)c1F [Compound 48, (R)-6-(1-acetyl-4-methoxypiperidin-4-yl)-4-((1-(3-(difluoromethyl)-2-fluorophenyl)prop-2-yn-1-yl)amino)-8-methylpyrido[2,3-d]pyrimidin-7(8H)-one]
< 100 nM | C#C[C@@H](Nc1nc(C)nc2c1cc(C1(O)CCN(C(C)=O)CC1)c(=O)n2C)c1cccc(C(F)(F)F)c1C [Compound 54, 6-(1-acetyl-4-hydroxypiperidin-4-yl)-2,8-dimethyl-4-{[(1R)-1-[2-methyl-3-(trifluoromethyl)phenyl]prop-2-yn-1-yl]amino}-7H,8H-pyrido[2,3-d]pyrimidin-7-one]
< 100 nM | C#C[C@@H](Nc1ncnc2c1cc(C1(OC)CCN(C(C)=O)C1)c(=O)n2C)c1cccc(C(F)F)c1F (stereo partly drawn) [Compound 49, 6-(1-acetyl-3-methoxypyrrolidin-3-yl)-4-{[(1R)-1-[3-(difluoromethyl)-2-fluorophenyl]prop-2-yn-1-yl]amino}-8-methyl-7H,8H-pyrido[2,3-d]pyrimidin-7-one]
